In article PMC8057092, “Cytotoxic activity of standardized extracts, a fraction, and individual secondary metabolites from fenugreek seeds against SKOV-3, HeLa and MOLT-4 cell lines” (Pharmaceutical Biology, 2021):
Converted amounts (≈) assume the structure as drawn. “Also recorded” adds a separate entry of the source. Like-named read-outs stand apart in the source and are kept apart here.

Experiments:
Format in all cases: cell-based, human
[1] = system: HaCaT cells; test: MTT assay, HaCaT keratinocytes; details: 24 h; for IC50: Homo sapiens, HaCaT, read-out: IC50 ± SD, HaCaT
Protocol: (§1) The human cervical (HeLa S3) and ovarian (SKOV-3) adenocarcinomas, acute human lymphoblastic leukaemia (MOLT-4) cell lines and human keratinocytes (HaCaT) were obtained from the American Type Culture Collection (ATCC, Manassas, VA, USA). […] All the media were supplemented with 10% (v/v) foetal bovine serum (FBS), 2 mM L-glutamine (except for McCoy’s 5 A), 100 units/mL of penicillin, 100 µg/mL of streptomycin (Sigma-Aldrich), and were kept at 37 °C in a humidified 5% CO2 incubator. The viability of all the cells was determined by 3-(4,5-dimethylthiazol-2-yl)-2,5-diphenyltetrazolium bromide (MTT) assay. […] The range of concentrations was selected experimentally to obtain symmetrical sigmoidal shape of dose-response curves generated by GraFit v. 7 (Erithacus Software, West Sussex, UK). […] Following treatment, the media with the extracts, fraction and compounds were removed and replaced with fresh media with MTT (0.5 mg/mL). After 3 h of incubation, the absorption of the formazan solution was measured at 570 nm with a plate reader (Epoch, BioTek, Winooski, VT, USA). The results are expressed as IC50 mean values (±SD, standard deviation) of at least two independent experiments, in six repetitions.

[2] = system: SKOV-3, HeLa and MOLT-4 cell lines; test: Cytotoxicity (MTT) on the tested cell lines, stated jointly; details: for cytotoxic activity, in words: NCI guideline: cytotoxic if IC50 under 20–30 μg/mL; for IC50: Homo sapiens, read-out: IC50, tested cell lines
Protocol: The viability of all the cells was determined by 3-(4,5-dimethylthiazol-2-yl)-2,5-diphenyltetrazolium bromide (MTT) assay. […] The range of concentrations was selected experimentally to obtain symmetrical sigmoidal shape of dose-response curves generated by GraFit v. 7 (Erithacus Software, West Sussex, UK). […] Following treatment, the media with the extracts, fraction and compounds were removed and replaced with fresh media with MTT (0.5 mg/mL). After 3 h of incubation, the absorption of the formazan solution was measured at 570 nm with a plate reader (Epoch, BioTek, Winooski, VT, USA). The results are expressed as IC50 mean values (±SD, standard deviation) of at least two independent experiments, in six repetitions. To determine the cytotoxic selectivity of the extracts, fraction and compounds, the selectivity index (SI) was calculated according to the formula: SI = IC50^(non-cancer cells)/IC50^(cancer cells) (Table 1).

[3] = system: HeLa cells; test: MTT assay, HeLa; details: for IC50 ± SD, HeLa / IC50: 24 h; for Selectivity index (SI), HeLa: SI = IC50 HaCaT/IC50 HeLa, from MTT results; for IC50: Homo sapiens, HeLa, read-out: IC50 ± SD, HeLa
Protocol: as §1

[4] = system: SKOV-3 cells; test: MTT assay, SKOV-3; details: for Selectivity index (SI), SKOV-3: SI = IC50 HaCaT/IC50 SKOV-3, from MTT results; for IC50: Homo sapiens, read-out: IC50 ± SD, SKOV-3
Protocol: as §1

[5] = system: HaCaT cells; test: RTCA (xCELLigence) cell proliferation assay, HaCaT; details: 24 h; for IC50: Homo sapiens, HaCaT, read-out: IC50 ± SD, HaCaT
Protocol: (§2) The human cervical (HeLa S3) and ovarian (SKOV-3) adenocarcinomas, acute human lymphoblastic leukaemia (MOLT-4) cell lines and human keratinocytes (HaCaT) were obtained from the American Type Culture Collection (ATCC, Manassas, VA, USA). The HeLa and HaCaT cells were cultured in Dulbecco’s Modified Eagle’s Medium (DMEM), SKOV-3 and MOLT-4 cells were cultured in McCoy’s 5 A and RPMI 1640 Media, respectively. All the media were supplemented with 10% (v/v) foetal bovine serum (FBS), 2 mM L-glutamine (except for McCoy’s 5 A), 100 units/mL of penicillin, 100 µg/mL of streptomycin (Sigma-Aldrich), and were kept at 37 °C in a humidified 5% CO2 incubator.
(§3) The xCELLigence Real-Time Cell Analyzer Dual Plate (RTCA DP, ACEA Biosciences, San Diego, CA, USA) was used for monitoring of viability of adherent cells (HeLa, SKOV-3 and HaCaT) treated with the extracts (A, B), fraction C and sapogenins for 24 h. The cells were seeded at a density of 2 × 10^4 cells/well into E-plate 16 (ACEA Biosciences). When the cells entered log phase, the extracts, fraction and steroidal saponins were added in the final concentration range of 5.0–120.0 µg/mL, 5.0–100.0 µg/mL, and 1.0–50.0 µg/mL, respectively. The range of concentrations was selected experimentally to obtain symmetrical sigmoidal shape of dose-response curves generated by RTCA software v. 1.2.1 (ACEA Biosciences). The maximal concentrations of the extract A, fraction and compounds solvents in the RTCA experiments were 4.0% (v/v) for methanol and 0.8% (v/v) for DMSO. To obtain viability profiles and calculate IC50 values, we used the RTCA software v. 1.2.1. All the experiments were performed in duplicate, in three independent repeats.

[6] = system: SKOV-3 cells; test: RTCA (xCELLigence) cell proliferation assay, SKOV-3; details: for IC50 ± SD, SKOV-3 / IC50: RTCA, 24 h; for Selectivity index (SI), SKOV-3: SI = IC50 HaCaT/IC50 SKOV-3, from RTCA results; for IC50: Homo sapiens, SK-OV-3, 24 h, read-out: IC50 ± SD, SKOV-3
Protocol: as §2, §3

[7] = system: HeLa cells; test: RTCA (xCELLigence) cell proliferation assay, HeLa; details: for Selectivity index (SI), HeLa: SI = IC50 HaCaT/IC50 HeLa, from RTCA results; for IC50: Homo sapiens, HeLa, read-out: IC50 ± SD, HeLa
Protocol: as §2, §3

[8] = MTT, stated jointly for the tested cell lines

IC50 ± SD, HeLa ([3]; MTT)	IC50 ± SD, SKOV-3 ([4]; MTT, 24 h)	IC50 ([3]; MTT)	IC50 ([4]; SK-OV-3, MTT, 24 h)	Compound	IC50 ± SD, HaCaT ([1]; MTT)	IC50, tested cell lines [2, 8]	cytotoxic activity, in words ([2]; MTT)	Selectivity index (SI), HeLa [3]	Selectivity index (SI), SKOV-3 [4]	Selectivity index (SI), SKOV-3 [6]	Selectivity index (SI), HeLa [7]	IC50 ([1]; MTT)	other results
>50 µg/mL	>50 µg/mL	–	–	O=c1cc(-c2ccc(O)cc2)oc2c([C@@H]3O[C@H](CO)[C@@H](O)[C@H](O)[C@H]3O)c(O)c([C@@H]3OC[C@@H](O)[C@H](O)[C@H]3O)c(O)c12 [Vicenin-1]	>50 µg/mL	> 50 µg/mL	–	–	–	–	–	–	–
–	–	–	–	O=c1cc(-c2ccc(O)cc2)oc2c([C@@H]3O[C@H](CO)[C@@H](O)[C@H](O)[C@H]3O)c(O)cc(O)c12 [Vitexin]	–	–	inactive	–	–	–	–	–	IC50 [1]: > 50 µg/mL; IC50 [2]: > 50 µg/mL; IC50 ([4]; SK-OV-3, 24 h): > 50 µg/mL
–	–	> 50 µg/mL	> 50 µg/mL	O=c1cc(-c2ccc(O)c(O)c2)oc2cc(O)c([C@@H]3O[C@H](CO)[C@@H](O)[C@H](O)[C@H]3O)c(O)c12 [Isoorientin]	–	–	inactive	–	–	–	–	> 50 µg/mL	IC50 [2, 8]: > 50 µg/mL
>50 µg/mL	>50 µg/mL	–	–	O=c1cc(-c2ccc(O)cc2)oc2c([C@@H]3OC[C@@H](O)[C@H](O)[C@H]3O)c(O)c([C@@H]3O[C@H](CO)[C@@H](O)[C@H](O)[C@H]3O)c(O)c12 [Vicenin-3]	>50 µg/mL	> 50 µg/mL	inactive	–	–	–	–	–	–
>50 µg/mL	>50 µg/mL	–	–	O=c1cc(-c2ccc(O)cc2)oc2c([C@@H]3O[C@H](CO)[C@@H](O)[C@H](O)[C@H]3O)c(O)c([C@@H]3O[C@H](CO)[C@@H](O)[C@H](O)[C@H]3O)c(O)c12 [Vicenin-2]	>50 µg/mL	> 50 µg/mL	inactive	–	–	–	–	–	–
–	–	> 50 µg/mL	> 50 µg/mL	C[n+]1cccc(C(=O)[O-])c1 [Trigonelline]	–	–	–	–	–	–	–	> 50 µg/mL	IC50 [2, 8]: > 50 µg/mL
–	–	–	–	O=c1cc(-c2ccc(O)c(O)c2)oc2c([C@@H]3O[C@H](CO)[C@@H](O)[C@H](O)[C@H]3O)c(O)cc(O)c12 [Orientin]	–	–	inactive	–	–	–	–	–	IC50 [1]: > 50 µg/mL; IC50 [2]: > 50 µg/mL; IC50 [3]: > 50 µg/mL; IC50 ([4]; SK-OV-3, 24 h): > 50 µg/mL
–	–	16.3 ± 0.26 µg/mL (≈ 39.3 µM)	19.3 ± 0.97 µg/mL (≈ 46.5 µM)	C[C@@H]1CC[C@@]2(OC1)O[C@H]1C[C@H]3[C@@H]4CC=C5C[C@@H](O)CC[C@]5(C)[C@H]4CC[C@]3(C)[C@H]1[C@@H]2C [Diosgenin]	–	–	cytotoxic; also recorded: active	0.76	0.64	1.38	0.84	12.4 ± 0.5 µg/mL (≈ 29.9 µM)	IC50 [5]: 23.4 ± 0.42 µg/mL (≈ 56.4 µM); IC50 [6]: ~20 µg/mL (≈ 48.2 µM); IC50 ± SD, SKOV-3 [6]: 16.90 ± 2.89 µg/mL (≈ 40.8 µM); IC50 ([7]; RTCA, 24 h): 28 ± 2.4 µg/mL (≈ 67.5 µM)

Compound	IC50 ± SD, HeLa ([3]; MTT)	IC50 ± SD, SKOV-3 ([4]; MTT, 24 h)	IC50 ([3]; MTT)	IC50 ([4]; SK-OV-3, MTT, 24 h)	IC50 ± SD, HaCaT ([1]; MTT)	IC50, tested cell lines [2, 8]	cytotoxic activity, in words ([2]; MTT)	Selectivity index (SI), HeLa [3]	Selectivity index (SI), SKOV-3 [4]	Selectivity index (SI), SKOV-3 [6]	Selectivity index (SI), HeLa [7]	IC50 ([1]; MTT)	other results
C[C@H]1CC[C@@]2(OC1)O[C@H]1C[C@H]3[C@@H]4CC=C5C[C@@H](O)CC[C@]5(C)[C@H]4CC[C@]3(C)[C@H]1[C@@H]2C [Yamogenin]	16.5 ± 0.59 µg/mL (≈ 39.8 µM)	16.70 ± 0.08 µg/mL (≈ 40.3 µM)	–	–	9.70 ± 0.91 µg/mL (≈ 23.4 µM)	–	cytotoxic; also recorded: active	0.59	0.58	0.69	0.84	–	IC50 ± SD, HaCaT [5]: 16.40 ± 1.41 µg/mL (≈ 39.6 µM); IC50 ± SD, SKOV-3 [6]: 23.90 ± 1.48 µg/mL (≈ 57.6 µM); IC50 ± SD, SKOV-3 ([6]; listed as yamogenin): about 20 μg/mL; IC50 ± SD, HeLa ([7]; RTCA, 24 h): 19.60 ± 1.41 µg/mL (≈ 47.3 µM)
C[C@@H]1CC[C@@]2(OC1)O[C@H]1C[C@H]3[C@@H]4CC[C@H]5C[C@@H](O)CC[C@]5(C)[C@H]4CC[C@]3(C)[C@H]1[C@@H]2C [Tigogenin]	–	lowest activity	35.6 ± 3.69 µg/mL (≈ 85.4 µM)	> 50 µg/mL	–	–	active	0.87	< 0.62	1.16	1.30	31.1 ± 2.31 µg/mL (≈ 74.6 µM)	IC50 [5]: 32.7 ± 0.07 µg/mL (≈ 78.5 µM); IC50 [6]: 28.3 ± 3.46 µg/mL (≈ 67.9 µM); IC50 ([7]; RTCA, 24 h): 25.1 ± 0.12 µg/mL (≈ 60.2 µM)
